In PMC11277192 (International Journal of Molecular Sciences, 2024):

Tests used:
MOR = tested on: MOR; set-up: method as in PMID 35412886; settings: 10 µM; cited from earlier work
dopamine D2S receptor = biological target: T1, dopamine D2S receptor (Homo sapiens, UniProt P14416); assay: D2S agonist HitHunter cAMP XS+ assay; format: cell-based; set-up: Emax: dose or concentration left out as unconfirmed
T1 construct: host or cells: CHO-K1
Method: (§1) One hundred percent relative activity was normalized to maximum stimulation of endogenous agonists and 0% relative activity to compound vehicle control.
For the D2S agonist assay, cAMP CHO-K1 Hunter cell lines were expanded from freezer stocks according to standard procedures. The cell line manual was followed for cell growth (including cell culture media and supplementation, cell handling and preparation, etc.), test procedures, and signal detection.
(§2) In summary, cells were seeded in a total volume of 20 µL (10,000 cells) into white-walled, 384-well microplates and incubated at 37 °C for the appropriate time prior to testing.

[1] = biological target: T2, mu-opioid receptor (MOR, OPRM1) (Homo sapiens, UniProt P35372); format: cell-based; settings: for Increase in the met-enkephalin internalization signal: 10 µM compound, 30 min pre-treatment, then 1 µM met-enkephalin
T2 construct: host or cells: U2OS (methods); the results text b24 says CHO-K1
T2 sequence (P35372 whole entry): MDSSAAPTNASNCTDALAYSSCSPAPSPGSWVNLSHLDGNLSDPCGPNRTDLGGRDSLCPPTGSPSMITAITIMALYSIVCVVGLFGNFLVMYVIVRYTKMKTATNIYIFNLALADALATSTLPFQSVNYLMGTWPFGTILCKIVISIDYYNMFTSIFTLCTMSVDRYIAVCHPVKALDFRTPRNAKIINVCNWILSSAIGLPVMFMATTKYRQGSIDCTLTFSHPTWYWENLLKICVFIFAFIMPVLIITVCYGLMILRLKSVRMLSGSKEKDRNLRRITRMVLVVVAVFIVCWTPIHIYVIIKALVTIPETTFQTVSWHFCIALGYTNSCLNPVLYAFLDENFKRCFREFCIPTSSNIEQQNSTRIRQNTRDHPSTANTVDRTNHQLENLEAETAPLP
Method: For the MOR antagonist/NAM assay, PathHunter® OPRM1 (opioid receptor mu 1) total GPCR (G protein-coupled receptors) internalization U2OS cell lines were expanded from freezer stocks according to standard procedures. The cell line manual was followed for cell growth (including cell culture media and supplementation, cell handling and preparation, etc.), test procedures, and signal detection.
In summary, cells were seeded in a total volume of 20 µL (10,000 cells) into white-walled, 384-well microplates and incubated at 37 °C overnight prior to testing. After preparing a stock acetonitrile solution at a 1 mg/mL concentration of ligand, compound intermediate concentrations were achieved by a 10-point series of 3-fold compound serial dilutions in a compound dilution buffer in a separate dilution plate. The concentration of each dilution was prepared at 10× of the final screening concentration. […] A PerkinElmer Envision instrument was used for chemiluminescent signal detection.

5HT-1A receptor = biological target: T3, 5HT-1A receptor (Homo sapiens, UniProt P08908); assay: 5HT-1A agonist PathHunter β-arrestin assay; set-up: Emax: dose or concentration left out as unconfirmed; settings: for Emax: CHO-K1, read-out: 5HT-1A agonism, % of the maximum response of serotonin
T3 sequence (P08908 1-422): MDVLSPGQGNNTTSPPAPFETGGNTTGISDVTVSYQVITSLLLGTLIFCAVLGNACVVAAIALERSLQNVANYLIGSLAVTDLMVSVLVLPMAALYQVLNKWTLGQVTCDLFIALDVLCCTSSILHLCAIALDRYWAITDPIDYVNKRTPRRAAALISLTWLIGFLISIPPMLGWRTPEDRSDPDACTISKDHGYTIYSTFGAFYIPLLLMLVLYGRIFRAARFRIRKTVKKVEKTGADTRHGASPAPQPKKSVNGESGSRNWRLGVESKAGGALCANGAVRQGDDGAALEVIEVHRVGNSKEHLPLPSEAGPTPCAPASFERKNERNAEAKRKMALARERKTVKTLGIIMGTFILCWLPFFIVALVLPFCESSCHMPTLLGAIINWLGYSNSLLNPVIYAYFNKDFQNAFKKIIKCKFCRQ
From the text: as §1
For the 5HT-1A agonist assay, PathHunter® β-arrestin cells (CHO-K1) were expanded from freezer stocks according to standard procedures provided by Eurofins. The cell line manual was followed for cell growth (including cell culture media and supplementation, cell handling and preparation, etc.), test procedure, and signal detection.
In summary, cells were seeded at a total volume of 20 µL (10,000 cells) into white-walled, 384-well microplates and incubated at 37 °C for the appropriate time prior to testing. After preparing stock acetonitrile solution at a 1 mg/mL concentration of ligand, compound intermediate concentrations were achieved by a 10-point series of 3-fold compound serial dilutions in a compound dilution buffer in a separate dilution plate. The concentration of each dilution was prepared at 5× of the final screening concentration. […] Then, 12.5 μL Working Detection Solution was added, and the cells were incubated for 1 h at room temperature in the dark. The assay signal was generated through a single addition of 15 µL (50% v/v) of the PathHunter Detection reagent cocktail, followed by a one-hour incubation at room temperature. Microplates were read following signal generation with a PerkinElmer Envision instrument for chemiluminescent signal detection.

CB2 receptor [2] = biological target: T4, CB2 receptor (Homo sapiens, UniProt P34972); assay: CB2 antagonist cAMP assay (HitHunter cAMP XS+), CP55,940 challenge; format: cell-based; settings: for Emax: read-out: CB2 antagonist activity, % of the maximum effect of SR144528, highest tested concentration (12 µM), CP55,940 1 nM
T4 construct: host or cells: CHO-K1 (from the C2 catalogue suffix and 'same protocol' as CB1)
T4 sequence (P34972 whole entry): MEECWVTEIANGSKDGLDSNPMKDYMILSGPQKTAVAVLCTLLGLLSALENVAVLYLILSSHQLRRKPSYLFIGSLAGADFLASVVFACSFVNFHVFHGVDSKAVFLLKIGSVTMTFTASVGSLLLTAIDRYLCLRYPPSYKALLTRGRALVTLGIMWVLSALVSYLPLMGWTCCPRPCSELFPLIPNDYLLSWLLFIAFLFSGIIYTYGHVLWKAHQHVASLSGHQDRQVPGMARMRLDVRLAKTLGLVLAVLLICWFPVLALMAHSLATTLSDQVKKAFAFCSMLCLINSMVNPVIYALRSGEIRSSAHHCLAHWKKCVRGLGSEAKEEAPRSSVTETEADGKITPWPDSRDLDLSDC
Method: In summary, cells were seeded in a total volume of 20 µL (10,000 cells) into white-walled, 384-well microplates and incubated at 37 °C for the appropriate time prior to testing. […] The assay signal was generated through incubation with 20 μL cAMP XS+ ED/CL lysis cocktail for one hour, followed by incubation with 20 μL cAMP XS+ EA reagent for three hours at room temperature. Microplates were read following signal generation with a PerkinElmer Envision instrument for chemiluminescent signal detection.
(§3) For the CB1 and CB2 antagonist assays, cells were pre-incubated with antagonists/compounds, followed by an agonist challenge at an ~EC80 concentration. Similar to the agonist assay, before adding the ligands, media were aspirated from cells and replaced with 15 µL 2:1 HBSS/10mM HEPES/cAMP XS+ Ab reagent. A total of 5 μL of 4× compound solution, prepared in a separate plate by a 10-point series of 3-fold compound serial dilutions in assay buffer (forskolin excluded), was added to the cells and incubated at 37 °C for 30 min. […] The assay signal was generated through incubation with 20 μL cAMP XS+ ED/CL lysis cocktail for one hour, followed by incubation with 20 μL cAMP XS+ EA reagent for three hours at room temperature. A PerkinElmer Envision instrument was used for chemiluminescent signal detection.

CB2 receptor [3] = biological target: T4, CB2 receptor; assay: Radioligand binding assay, displacement of [3H]-CP55940 at CB2; settings: 1 µM compound; 100% = 1 µM WIN55212-2
Method: A total of 750 nl of the reference and test compounds was transferred to a 96-well compound plate, and 150 µL assay buffer was added to each well to achieve a 5× final concentration. The plates were centrifuged for 30 s at 1000 rpm and then agitated at 600 rpm and room temperature for 5 min.
Separately, 50 µL of 0.5% v/v PEI was added to each well of UniFilter-96 GF/C plates. The plates were sealed and incubated at 4 °C for 3 h. After incubation, they were washed 2 times with ice-cold wash buffer.
The cell membrane was diluted with assay buffer, and 330 µL was transferred to 96 round deep-well plates to reach a concentration of 10 µg/well. […] The plates were centrifuged at 1000 rpm for 30 s and then agitated at 600 rpm for 5 min (room temperature). The plates were sealed and incubated at 30 °C for 90 min. The incubation was stopped by vacuum filtration onto GF/C filter plates, followed by washing 4 times with ice-cold wash buffer. The plates were dried at 37 °C for 45 min. After the addition of 40 µL of scintillation cocktail, a Microbeta2 microplate counter was used to detect the radioactivity signals.

CB1 receptor = biological target: T5, CB1 receptor (Homo sapiens, UniProt P21554); assay: CB1 antagonist cAMP assay (HitHunter cAMP XS+), CP55,940 challenge; format: cell-based; settings: for Emax: CHO-K1, read-out: CB1 antagonist activity, % of the maximum response of AM251; for Concentration at which CB1 antagonist activity above the baseline appeared: CP55,940 1 nM, CHO-K1
T5 construct: host or cells: CHO-K1
T5 sequence (P21554 whole entry): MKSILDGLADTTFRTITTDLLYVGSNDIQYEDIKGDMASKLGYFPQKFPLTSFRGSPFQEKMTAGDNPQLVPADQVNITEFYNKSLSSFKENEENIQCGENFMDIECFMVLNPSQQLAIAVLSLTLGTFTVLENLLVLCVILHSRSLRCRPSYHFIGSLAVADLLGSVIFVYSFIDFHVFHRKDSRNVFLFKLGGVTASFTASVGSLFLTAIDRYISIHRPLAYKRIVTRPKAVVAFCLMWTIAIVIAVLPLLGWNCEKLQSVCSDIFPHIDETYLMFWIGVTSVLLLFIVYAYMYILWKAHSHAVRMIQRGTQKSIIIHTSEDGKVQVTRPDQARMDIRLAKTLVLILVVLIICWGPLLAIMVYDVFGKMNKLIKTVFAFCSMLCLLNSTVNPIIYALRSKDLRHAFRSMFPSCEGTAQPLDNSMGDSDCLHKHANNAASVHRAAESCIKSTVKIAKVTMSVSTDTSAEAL
Method: as §2, §3

mice = tested on: mice; set-up: method as in PMID 31889124; settings: doses 2.5 to 10 mg/kg; cited from earlier work

T1 sequence (P14416 1-414 isoform P14416-2): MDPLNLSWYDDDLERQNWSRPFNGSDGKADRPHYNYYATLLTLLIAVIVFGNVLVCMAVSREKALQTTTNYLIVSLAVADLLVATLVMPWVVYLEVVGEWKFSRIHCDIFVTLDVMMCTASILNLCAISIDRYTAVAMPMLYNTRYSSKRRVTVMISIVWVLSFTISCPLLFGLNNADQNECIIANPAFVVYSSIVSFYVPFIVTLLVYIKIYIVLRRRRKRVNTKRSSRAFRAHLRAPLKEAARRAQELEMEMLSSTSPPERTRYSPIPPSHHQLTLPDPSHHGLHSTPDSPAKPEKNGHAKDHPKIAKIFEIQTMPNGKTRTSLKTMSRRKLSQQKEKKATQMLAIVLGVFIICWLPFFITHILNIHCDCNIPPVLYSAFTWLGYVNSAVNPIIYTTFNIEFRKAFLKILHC

Compound | Activity of MOR in GTP turnover rate assay (MOR) | D2S agonism (in words) (dopamine D2S receptor; within the tested concentration range (up to 12 µM)) | Met-enkephalin-induced mu-opioid internalization (in words) ([1]; 3 µM compound and 1 µM met-enkephalin) | Increase in the met-enkephalin internalization signal [1] | EC50 (5HT-1A receptor) | Emax (5HT-1A receptor) | IC50 (CB2 receptor [2]; read-out: CB2 antagonist IC50 (not reached within tested concentrations)) | Emax (CB2 receptor [2]) | Displacement of radiolabeled CP55940 at the CB2 binding site (CB2 receptor [3]) | Emax (CB1 receptor) | Concentration at which CB1 antagonist activity above the baseline appeared (CB1 receptor) | IC50 (CB1 receptor; read-out: CB1 antagonist IC50 (not reached within tested range)) | Emax (dopamine D2S receptor; CHO-K1, read-out: D2S agonist activity, % maximum response of dopamine) | In vivo effects in mice (mice)
COc1ccc(C2SCCN2S(=O)(=O)c2ccc(Cl)cc2)cc1Br (stereo not drawn) [BMS-986122] | 166% |  |  |  |  |  |  |  |  |  |  |  |  | 
C=C(C)[C@@H]1CCC(C)=C[C@H]1c1c(O)cc(CCCCCCC)cc1O [CBDP, cannabidiphorol] |  | did not show any sign of agonism | significant increase | 37% | > 12 µM | ~20% | > 12 µM | ~23% | approximately 50% | ~20% | 3 µM | > 12 µM |  | 
C=C(C)[C@@H]1CCC(C)=C[C@H]1c1c(O)cc(CCCCC)cc1O [CBD, Cannabidiol, reference compound] |  |  |  | 18% | > 12 µM | ~20% |  | ~33% | approximately 50% | ~20% | 3 µM |  | 10.7% | 
CCCCCCCc1cc(O)c2c(c1)OC(C)(C)[C@@H]1CCC(C)=C[C@@H]21 [Δ9-THCP, tetrahydrocannabiphorol] |  |  |  |  |  |  |  |  |  |  |  |  |  | induce THC-like hypomotility, analgesia, and catalepsy
